These results are taken from PMC9128806 (Journal of medicinal chemistry, 2021).

The structures appear in SMILES notation.

Data set [1] deals with human leukemia EU-1 cell line. Description: WST antiproliferative/cytotoxicity assay, EU-1. Format: cell-based. The conditions noted are these: for fold increased potency compared to 2: para-ester replaced by acetyl or isobutyryl; for fold drop in potency, para to meta position: 16 vs 13, 17 vs 14.
Data set [2] concerns the target T1, MDM2 (Homo sapiens, UniProt Q00987). Description: MDM2 binding. The conditions noted are these: subsequent mechanistic studies, no data shown.
For data set [3], the system named is ALL cell lines (EU-1 and EU-3). Kind of data set: WST cytotoxicity assay, ALL cell lines. As to conditions: Homo sapiens, 48 h. The data set is classed as cell-based.
Data set [4] has as its system NB cell lines (NB-1643, SHEP1, and LA1–55N). Description: WST cytotoxicity assay, NB cell lines. As to conditions: Homo sapiens, 48 h. Format: cell-based.
In data set [5] the target is T1, MDM2. Kind of data set: Western blot, MDM2 expression in EU-1 cells. The data set is classed as cell-based.
Data set [6] relates to XIAP. Description: Western blot, XIAP expression in EU-1 cells. Format: cell-based, human. The conditions noted are these: dose-dependent.
For data set [7], the system named is p53, p21 and PUMA. Description: Western blot, p53 and its targets p21 and PUMA. The data set is classed as cell-based, human. The conditions noted are these: EU-1 cells; accompanying MDM2 downregulation.
Data set [8] concerns human normal bone marrow mononuclear (NBMM) cells. Description: Clonogenic assays for CFU-GM and BFU-E. The data set is classed as cell-based. The conditions noted are these: 1 μM, colonies counted after 14 days, vs control.
For data set [9] the following is noted: mice; cited from earlier work.

T1 sequence (Q00987 whole entry): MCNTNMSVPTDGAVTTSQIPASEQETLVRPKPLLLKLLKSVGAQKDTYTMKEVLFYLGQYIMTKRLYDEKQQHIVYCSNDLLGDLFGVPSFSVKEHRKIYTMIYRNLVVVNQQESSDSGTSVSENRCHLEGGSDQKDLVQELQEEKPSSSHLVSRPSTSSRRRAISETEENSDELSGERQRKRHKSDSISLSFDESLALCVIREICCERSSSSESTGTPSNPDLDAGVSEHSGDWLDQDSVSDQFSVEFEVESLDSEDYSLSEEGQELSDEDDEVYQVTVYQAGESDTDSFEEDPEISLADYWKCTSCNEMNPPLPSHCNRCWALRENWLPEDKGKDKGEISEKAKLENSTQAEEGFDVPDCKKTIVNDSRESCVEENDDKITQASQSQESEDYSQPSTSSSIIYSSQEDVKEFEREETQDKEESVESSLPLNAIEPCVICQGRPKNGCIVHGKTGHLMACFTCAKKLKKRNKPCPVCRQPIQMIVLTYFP

For `CC(=O)c1ccc(C2Nc3ccc(S(=O)(=O)Nc4ccc(C)c(C)c4)cc3C3OCCC23)cc1` (stereo not drawn) [Compound 13, 4-(4-Acetylphenyl)-N-(3,4-dimethylphenyl)-2,3,3a,4,5,9b-hexahydrofuro[3,2-c]quinoline-8-sulfonamide], the “fold increased potency compared to 2” value in data set [1] was “approximately 4 fold”. In addition, the “binding to the MDM2 target” value in data set [2] is reported as “does not bind to the MDM2 target”.

Turning to `Cc1ccc(NS(=O)(=O)c2ccc3c(c2)C2OCCC2C(c2ccc(C(=O)C(C)C)cc2)N3)cc1C` (stereo not drawn) [Compound 14, N-(3,4-Dimethylphenyl)-4-(4-isobutyrylphenyl)-2,3,3a,4,5,9b-hexahydrofuro[3,2-c]quinoline-8-sulfonamide], the “fold increased potency compared to 2” value in [1] is “approximately 4 fold”. Besides, the results for the IC50 in data set [3] and in data set [4] were 300 to 400 nM and 500 to 1200 nM, respectively. Further, in data set [5] (MDM2 and XIAP), the “time after treatment at which downregulation of MDM2 and XIAP occurred” value fell in the range of 2 to 4 h. The MDM2 expression result in data set [5] (dose-dependent) is “remarkable downregulation”. For the same compound, the XIAP expression entry in data set [6] is reported as “remarkable downregulation”. Also, in data set [7], the p53 expression entry is “increased expression of p53”.

Consider `Cc1ccc(NS(=O)(=O)c2ccc3c(c2)[C@H]2OCC[C@H]2[C@@H](c2ccc(C(=O)C(C)C)cc2)N3)cc1C` [Compound 14d, (3aS,4S,9bS)-N-(3,4-Dimethylphenyl)-4-(4-isobutyrylphenyl)-2,3,3a,4,5,9b-hexahydrofuro[3,2-c]quinoline-8-sulfonamide], for which the “fold higher potency compared to the other three isomers” value in data set [1] (14d vs 14a–c) is 5- to 8 fold.

On to `Cc1ccc(NS(=O)(=O)c2ccc3c(c2)C2OCCC2C(c2ccc(C(O)C(C)C)cc2)N3)cc1C` (stereo not drawn) [Compound 15, N-(3,4-Dimethylphenyl)-4-(4-(1-hydroxy-2-methylpropyl)phenyl)-2,3,3a,4,5,9b-hexahydrofuro[3,2-c]-quinoline-8-sulfonamide], for which the “fold decreased potency compared to 14” value in [1] (EU-1 IC50 ratio) is listed as “approximately 4 fold”.

Take `CC(=O)c1cccc(C2Nc3ccc(S(=O)(=O)Nc4ccc(C)c(C)c4)cc3C3OCCC23)c1` (stereo not drawn) [Compound 16, 4-(3-Acetylphenyl)-N-(3,4-dimethylphenyl)-2,3,3a,4,5,9b-hexahydrofuro[3,2-c]quinoline-8-sulfonamide]: the “fold drop in potency, para to meta position” value in data set [1] is 4 fold.

In the case of `Cc1ccc(NS(=O)(=O)c2ccc3c(c2)C2OCCC2C(c2cccc(C(=O)C(C)C)c2)N3)cc1C` (stereo not drawn) [Compound 17, N-(3,4-Dimethylphenyl)-4-(3-isobutyrylphenyl)-2,3,3a,4,5,9b-hexahydrofuro[3,2-c]quinoline-8-sulfonamide], the “fold drop in potency, para to meta position” value in [1] was 7 fold.

`Cc1ccc(NS(=O)(=O)c2ccc3c(c2)C2OCCC2C(c2ccc(C(=O)C4CC4)cc2)N3)cc1C` (stereo not drawn) [Compound 22, 4-(4-(Cyclopropanecarbonyl)phenyl)-N-(3,4-dimethylphenyl)-2,3,3a,4,5,9b-hexahydrofuro[3,2-c]quinoline-8-sulfonamide]: the “fold decreased potency compared to 14” value in [1] (EU-1 IC50 ratio) turned out to be 10 fold.

In the case of `Cc1ccc(NS(=O)(=O)c2ccc3c(c2)C2OCCC2C(c2ccc(C(=O)C4CCCCC4)cc2)N3)cc1C` (stereo not drawn) [Compound 25, 4-(4-(Cyclohexanecarbonyl)phenyl)-N-(3,4-dimethylphenyl)-2,3,3a,4,5,9b-hexahydrofuro[3,2-c]quinoline-8-sulfonamide], the “fold decreased potency compared to 14” value in data set [1] (EU-1 IC50 ratio) is recorded as “approximately 6 fold”.

For the compound `Cc1ccc(NS(=O)(=O)c2ccc3c(c2)C2OCCC2C(c2ccc(C(=O)c4ccccc4)cc2)N3)cc1C` (stereo not drawn) [Compound 26, 4-(4-Benzoylphenyl)-N-(3,4-dimethylphenyl)-2,3,3a,4,5,9b-hexahydrofuro[3,2-c]quinoline-8-sulfonamide], the “fold decreased potency compared to 14” value in data set [1] (EU-1 IC50 ratio) is “approximately 6 fold”.

For the compound `Cc1ccc(NS(=O)(=O)c2ccc3c(c2)C2C=CCC2C(c2ccc(C(=O)C(C)C)cc2)N3)cc1C` (stereo not drawn) [Compound 27, N-(3,4-Dimethylphenyl)-4-(4-isobutyrylphenyl)-3a,4,5,9b-tetrahydro-3H-cyclopenta[c]quinoline-8-sulfonamide], the “fold decreased potency compared to 14” value in [1] (EU-1 IC50 ratio) came to 5 fold.

Turning to `Cc1ccc(NS(=O)(=O)c2ccc3c(c2)C2CCCC2C(c2ccc(C(=O)C(C)C)cc2)N3)cc1C` (stereo not drawn) [Compound 28, N-(3,4-Dimethylphenyl)-4-(4-isobutyrylphenyl)-2,3,3a,4,5,9b-hexahydro-1H-cyclopenta[c]quinoline-8-sulfonamide], the “fold drop in potency compared to 27” value in data set [1] (saturation of cyclopentene double bond) was “approximately 3 fold”.

Consider `Cc1ccc(NS(=O)(=O)c2ccc3c(c2)C2NCCC2C(c2ccc(C(=O)C(C)C)cc2)N3)cc1C` (stereo not drawn) [Compound 30, N-(3,4-Dimethylphenyl)-4-(4-isobutyrylphenyl)-2,3,3a,4,5,9b-hexahydro-1H-pyrrolo[3,2-c]quinoline-8-sulfonamide], for which, in data set [1] (EU-1 IC50 ratio), the “fold decreased potency compared to 14” value was 6 fold.

On to `Cc1ccc(NS(=O)(=O)c2ccc3c(c2Cl)C2C=CCC2C(c2ccc(S(C)(=O)=O)cc2)N3)cc1C` (stereo not drawn) [Compound 44, 9-Chloro-N-(3,4-dimethylphenyl)-4-(4-(methylsulfonyl)phenyl)-3a,4,5,9b-tetrahydro-3H-cyclopenta[c]quinolone-8-sulfonamide], for which the “fold less potent than parent compound 42” value in [1] (EU-1 IC50 ratio) is reported as “approximately 6 fold”.

Turning to `Cc1ccc(N(C)S(=O)(=O)c2ccc3c(c2)C2OCCC2C(c2ccc(C(=O)C(C)C)cc2)N3C)cc1C` (stereo not drawn) [Compound 45, N-(3,4-Dimethylphenyl)-4-(4-isobutyrylphenyl)-N,5-dimethyl-2,3,3a,4,5,9b-hexahydrofuro[3,2-c]quinoline-8-sulfonamide], the “fold decreased potency compared to 14” value in [1] (EU-1 IC50 ratio) is recorded as 2 fold.

For the compound `Cc1ccc(N(C)S(=O)(=O)c2ccc3c(c2)C2OCCC2C(c2ccc(C(=O)C(C)C)cc2)N3)cc1C` (stereo not drawn) [Compound 46, N-(3,4-Dimethylphenyl)-4-(4-isobutyrylphenyl)-N-methyl-2,3,3a,4,5,9b-hexahydrofuro[3,2-c]quinoline-8-sulfonamide], the “fold decreased potency compared to 14” value in [1] (EU-1 IC50 ratio) turned out to be 3 fold.

For `COc1cccc2c1C(=O)c1c(O)c3c(c(O)c1C2=O)C[C@@](O)(C(=O)CO)C[C@@H]3O[C@H]1C[C@H](N)[C@H](O)[C@H](C)O1` [Dox, doxorubicin], the “CFU-GM and BFU-E colony numbers and size” value in data set [8] is on record as “significantly reduced”.

As for `Cc1ccc(NS(=O)(=O)c2ccc3c(c2)C2C=CCC2C(c2ccc(C(=O)O)cc2)N3)cc1C` (stereo not drawn) [MX69], in data set [9], the tolerability result is given as “well tolerated”.
